The source of these data is patent US11292787B2, “Five-membered-fused-six-membered aza-aromatic ring compound, preparation method thereof, pharmaceutical composition and application thereof” (XIAMEN UNIVERSITY, priority 2017, dated 2022).

T1 sequence (P01116 1-188 isoform P01116-2 G12V): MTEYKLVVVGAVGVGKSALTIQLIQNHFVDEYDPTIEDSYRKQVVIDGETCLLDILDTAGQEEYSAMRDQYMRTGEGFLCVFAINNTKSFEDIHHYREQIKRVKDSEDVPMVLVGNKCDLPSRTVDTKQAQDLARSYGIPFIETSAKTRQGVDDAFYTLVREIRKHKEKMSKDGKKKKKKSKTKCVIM

The assay concerns the target T1, K-Ras protein (Homo sapiens, UniProt P01116, G12V).
T1 construct: in SW620 cells, compound I-a-1 can effectively enhance the degradation of endogenous K-RAS-G12V proteins; endogenous in cells; host or cells: SW-620
In words: K-Ras protein degradation rate by Western blot in SW-620 cells. It counts as cell-based. The conditions noted are these: 10 μM, SW-620 cells, 24 h, Western blot, relative to DMSO control; read-out: Degradation rate of compounds at 10 μM on Ras protein (%). As to the method: Inhibitory activity of compounds on K-RAS was evaluated by the degradation rate of protein level of administration group relative to control group (Cell Rep 2014, 7, 871-882).
The specific method was as follows:
1. Cell plating: SW-620 cells in logarithmic growth phase were inoculated into a 24-well plate at 2×10^4/well, and cultured in a 37° C., 5% CO2 incubator.
2. Administering drug to cells: after 24 h of culture, various drug stocks […]; the original solution in the 24-well plate was discarded, to which was added the obtained drug solution, with the DMSO group as the blank control; after the drug solution was added, the 24-well plate was transferred to the 37° C. CO2 incubator to continue the culture.
3. Detection of K-Ras protein level: after 24 h of administration and culture, the liquid in the well was discarded, the cells were routinely collected, and rinsed twice with 1×PBS, a cell lysate was added to extract the total cellular protein, and the protein concentration was determined by BCA method. 30 μg of the protein sample was taken for SDS-polyacrylamide gel electrophoretic transmembrane, the membrane was blocked sequentially, incubated with K-Ras antibody (1:1000) and internal reference antibody β-actin (1:2000) respectively overnight at 4° C., rinsed with TBST for 5 min×3 times, then incubated with the addition of the corresponding horseradish peroxidase-labeled secondary antibody (1:5000) for 1-2 h, and rinsed with TBST for 5 min×3 times. Finally, chemiluminescence image was acquired using Image Lab software.
4. Calculation of single-point K-Ras protein degradation rate: quantitative and calibration analysis of K-Ras and β-actin were conducted using Image-Lab software, and then the intracellular K-Ras degradation rate was calculated according to the following formula: single-point K-Ras protein degradation rate (%)=(control group−administration group)/control group×100%. The drug with degradation rate ≥20% was selected for soft agar experiment.
With `O=C(NCc1c(F)cccc1Cl)c1coc(-c2c[nH]c3ccccc23)c1` [IV-c-1], the percent K-Ras protein degradation (single point) at 10 µM worked out at 30%.
As for `O=C(NCc1ccc(Cl)cc1)c1c[nH]c(-c2n[nH]c3ncccc23)c1` [III-f-6], the percent K-Ras protein degradation (single point) at 10 µM is 15%.
The figure for `O=C(Nc1ccccc1)c1csc(-c2n[nH]c3ncccc23)c1` [III-a-2] is 9%; for `O=C(Nc1ccccc1)c1ccc(-c2n[nH]c3ccccc23)cc1` [I-e-2] it is 12%; for `O=C(NCc1c(F)cccc1Cl)c1cccc(-c2cnc3ccccn23)c1` [IX-d-1] it is 30%.
To `COc1cccc(CNC(=O)c2c[nH]c(-c3n[nH]c4ncccc34)c2)c1` [III-f-53] belongs 50%.
The figure for `CC(C)(C)n1nc(-c2cc(C(=O)Nc3ccccc3)cs2)c2c(N)ncnc21` [VI-a-2] is 30%.
As to `COc1ccc(CNC(=O)c2c[nH]c(-c3n[nH]c4ncccc34)c2)cc1` [III-f-55], the percent K-Ras protein degradation (single point) at 10 µM stood at 25%.
To `O=C(NCc1c(F)cccc1Cl)c1c[nH]c(-c2n[nH]c3ncccc23)c1` [III-f-1] belongs 60%.
The figure for `O=C(NCc1cc(C(F)(F)F)ccc1F)c1csc(-c2n[nH]c3ccccc23)c1` [I-a-9] is 30%; for `O=C(NC1CCCCC1)c1ccc(-c2cnc3cnccn23)cc1` [VII-e-3] it is 30%; for `O=C(NCc1cccc([N+](=O)[O-])c1)c1c[nH]c(-c2n[nH]c3ncccc23)c1` [III-f-48] it is 60%.
The figure for `O=C(NCc1c(F)cccc1Cl)c1c[nH]c(-c2cnc3cnccn23)c1` [VII-b-1] is 20%; for `O=C(NCc1cccc(Br)c1)c1c[nH]c(-c2n[nH]c3ncccc23)c1` [III-f-41] it is 60%.
Consider `CC(C)(C)n1nc(-c2cccc(C(=O)NCc3c(F)cccc3Cl)c2)c2c(N)ncnc21` [VI-d-1], for which the percent K-Ras protein degradation (single point) at 10 µM was 30%.
The figure for `O=C(NCCc1ccccc1)c1c[nH]c(-c2n[nH]c3ncccc23)c1` [III-f-24] is 13%; for `O=C(NCc1cc(F)ccc1F)c1c[nH]c(-c2n[nH]c3ncccc23)c1` [III-f-56] it is 70%; for `O=C(NCc1c(F)cccc1Cl)c1ccc(-c2n[nH]c3ccccc23)[nH]1` [I-g-1] it is 30%.
The figure for `O=C(NCc1c(F)cccc1Cl)c1cccc(-c2cnc3cccnn23)c1` [VIII-d-1] is 2%; for `O=C(NCc1cccc(Cl)c1)c1c[nH]c(-c2n[nH]c3ncccc23)c1` [III-f-46] it is 60%.
To `O=C(Nc1ccccc1)c1c[nH]c(-c2n[nH]c3ccccc23)c1` [I-b-2] belongs 56%; to `O=C(NCc1c(F)cccc1Cl)c1coc(-c2cnc3ccccn23)c1` [IX-c-1], 40%; to `Cc1ccc(NC(=O)c2c[nH]c(-c3n[nH]c4ncccc34)c2)cc1` [III-f-16], 15%.
For `O=C(NCc1c(F)cccc1Cl)c1csc(-c2cnc3cccnn23)c1` [VIII-a-1], the percent K-Ras protein degradation (single point) at 10 µM came out at 40%.
To `O=C(NCc1c(F)cccc1Cl)c1ccc(-c2cnc3ccccn23)s1` [IX-f-1] belongs 50%.
The figure for `O=C(NCc1cccc(C(F)(F)F)c1F)c1c[nH]c(-c2n[nH]c3ncccc23)c1` [III-f-60] is 65%; for `O=C(NCc1c(F)cccc1Cl)c1ccc(-c2cnc3ccccn23)cc1` [IX-e-1] it is 40%.
To `O=C(NCc1c(F)cccc1Cl)c1ccc(-c2n[nH]c3ncccc23)s1` [III-e-1] belongs 40%; to `O=C(Nc1c(F)cccc1Cl)c1ccc(-c2n[nH]c3ncccc23)cc1` [III-d-3], 27%.
On to `O=C(NCc1c(F)cccc1Cl)c1c[nH]c(-c2n[nH]c3ccccc23)c1` [I-b-1], for which the percent K-Ras protein degradation (single point) at 10 µM amounted to 50%.
As for `O=C(Nc1ccccc1)c1coc(-c2cnc3ccccn23)c1` [IX-c-2], the percent K-Ras protein degradation (single point) at 10 µM stood at 40%.
The figure for `O=C(NCc1cccc(F)c1)c1c[nH]c(-c2n[nH]c3ncccc23)c1` [III-f-44] is 70%; for `O=C(NCc1c(F)cccc1Cl)c1ccc(-c2cnc3cnccn23)s1` [VII-f-1] it is 25%; for `O=C(Nc1ccccc1)c1coc(-c2c[nH]c3ncccc23)c1` [II-b-2] it is 50%.
The figure for `O=C(NCc1c(F)cccc1Cl)c1coc(-c2c[nH]c3ncccc23)c1` [II-b-1] is 52%.
To `O=C(NC1CCCCC1)c1csc(-c2c[nH]c3ccccc23)c1` [IV-a-3] belongs 35%.
Take `O=C(Nc1ccccc1)c1csc(-c2c[nH]c3ccccc23)c1` [IV-a-2]: the percent K-Ras protein degradation (single point) at 10 µM came to 50%.
For `CC(C)(C)n1nc(-c2cccc(C(=O)Nc3ccccc3)c2)c2c(N)ncnc21` [VI-d-2], the percent K-Ras protein degradation (single point) at 10 µM is 30%.
To `O=S(=O)(Cc1c(F)cccc1Cl)c1c[nH]c(-c2n[nH]c3ncccc23)c1` [III-h-4] belongs 41%; to `O=C(NCc1c(F)cccc1Cl)c1coc(-c2n[nH]c3ccccc23)c1` [I-c-1], 11%.
The figure for `O=S(=O)(Cc1ccc(Cl)cc1)c1c[nH]c(-c2n[nH]c3ncccc23)c1` [III-h-5] is 16%; for `O=S(=O)(Cc1c(Cl)cccc1Cl)c1c[nH]c(-c2n[nH]c3ncccc23)c1` [III-h-3] it is 18%.
The figure for `O=C(Nc1ccccc1)c1ccc(-c2n[nH]c3ncccc23)s1` [III-e-2] is 40%; for `COc1ccc(NC(=O)c2c[nH]c(-c3n[nH]c4ncccc34)c2)cc1` [III-f-17] it is 19%.
In the case of `O=C(NC1CCCCC1)c1ccc(-c2c[nH]c3ccccc23)cc1` [IV-e-3], the percent K-Ras protein degradation (single point) at 10 µM was found to be 40%.
The figure for `O=C(NCc1c(F)cccc1Cl)c1ccc(-c2c[nH]c3ncccc23)s1` [II-e-1] is 15%.
As for `O=C(NC1CCCCC1)c1ccc(-c2cnc3cnccn23)s1` [VII-f-3], the percent K-Ras protein degradation (single point) at 10 µM turned out to be 20%.
The figure for `O=C(Nc1ccccc1)c1ccc(-c2n[nH]c3ncccc23)cc1` [III-d-2] is 18%; for `O=C(NCc1ccccc1Br)c1c[nH]c(-c2n[nH]c3ncccc23)c1` [III-f-42] it is 70%; for `O=C(Nc1ccccc1)c1c[nH]c(-c2n[nH]c3ncccc23)c1` [III-f-10] it is 18%.
On to `O=C(NCc1cccc(C(F)(F)F)c1)c1csc(-c2n[nH]c3ncccc23)c1` [III-a-3], for which the percent K-Ras protein degradation (single point) at 10 µM worked out at 60%.
Consider `O=C(NCc1c(F)cccc1Cl)c1csc(-c2cnc3cnccn23)c1` [VII-a-1], for which the percent K-Ras protein degradation (single point) at 10 µM is 5%.
The figure for `O=C(Nc1ccccc1)c1ccc(-c2cnc3ccccn23)cc1` [IX-e-2] is 50%.
The figure for `O=C(Nc1ccccc1)c1coc(-c2cnc3cccnn23)c1` [VIII-c-2] is 10%.
As for `O=C(Nc1ccccc1)c1c[nH]c(-c2cnc3cnccn23)c1` [VII-b-2], the percent K-Ras protein degradation (single point) at 10 µM is 20%.
